Literature values, collected in US20050031668A1, “Implantable polymeric device for sustained release of nalmefene” (priority 2003, published 2005).

Legend:
[1] = in vivo
[2] = not given; remark: listed apart in the source
[3] = not given; remark: listed apart in the source
[4] = in vivo; remark: listed apart in the source

SMILES	nausea (20 or 80 mg/day orally)	serious adverse events (20 or 80 mg/day orally)	proportion of nalmefene patients who relapsed (20 or 80 mg/day orally, twelve weeks)	relapse to heavy drinking versus placebo (20 or 80 mg/day orally, twelve-week study, 105 alcoholic patients)	number of abstinent days and self-reported craving (treated versus control groups)	efficacy in animal models of alcoholism [1]	agonist activity (μ, δ, and κ receptors)	opioid receptors acted on (μ, δ, and κ receptors)	half-life ([2]; compared with naltrexone)	serious adverse effects ([2]; in vivo)	rate of relapse compared with placebo or 10 mg nalmefene ([3]; 40 mg oral, 21 alcohol-dependent patients)	number of drinks per drinking day ([3]; 40 and 10 mg doses)	limitations of use: hepatotoxicity [4]	limitations of use: nausea [4]
C=C1CC[C@@]2(O)[C@H]3Cc4ccc(O)c5c4[C@@]2(CCN3CC2CC2)[C@H]1O5 [nalmefene]	Transient nausea	no serious adverse events occurred	One-third	Fewer patients receiving nalmefene relapsed to heavy drinking	the same in treated and control groups	effective	no agonist activity	acts on μ, δ, and κ receptors	longer half-life	no serious adverse effects	significantly lower rate of relapse	significantly decreased	–	–
O=C1CC[C@@]2(O)[C@H]3Cc4ccc(O)c5c4[C@@]2(CCN3CC2CC2)[C@H]1O5 [naltrexone]	–	–	–	–	–	–	–	primarily blocks μ receptors	–	–	–	–	dose-dependent hepatotoxic side effects	intolerable nausea
